Assay results published in US20240115654A1, “INTRAVENOUS ADMINISTRATION OF ENGINEERED ANTIMICROBIAL AMPHIPHILIC PEPTIDES” (priority 2021, published 2024).
Several values for one entry are separate records, joined by “and”; a condition that tells them apart may be missing. Equal values may be shown once. Read-outs that look alike come from different tables or passages of the source. Peptide text beside a SMILES is read from it.

Legend:
[1] = 30 min IV infusion
Description: Animals will be obtained from the Test Facility's colony of adult male cynomolgous monkeys (Macaca fascicularis) of Chinese origin. Animals will be weighed prior to dosing.
Animals will be fasted a minimum of 2 hours prior to procedures requiring the administration of ketamine anesthesia. The diet will also be supplemented with other nutrients by feeding items such as raisins or fresh fruits that are presented to the animal as part of an environmental enrichment program. Offering items known to cause diarrhea will be avoided.
Intravenous administration will be via 30 minute infusion into a temporary percutaneous catheter placed into a saphenous vein. Prior to and following dose administration, the catheter will be flushed with 0.5 mL saline prior to removal. All dosing syringes will be weighed prior to and following dosing.
Serial blood samples will be collected via femoral vein (cephalic or saphenous, as necessary). Approximately 1 mL blood samples will be collected into K2EDTA tubes.
Blood samples will be collected into K2EDTA tubes and stored on wet ice. Whole blood will be processed to plasma by centrifugation (2400-2700 rpm at 5° C.) within 30 minutes of collection. Plasma samples will be split into 2 equal aliquots and stored at −80° C. until analysis.
Prior to extraction, a known concentration of a mass-adjusted internal standard (IS) will be added to assess recovery and allow for quantitation. Purified samples will be further subjected to high-performance liquid chromatography (HPLC) using C18 300 or 130 angstrom columns prior to MS/MS analysis. Multiple charge states will be observed by MS, so MS/MS will be employed to enable multiple reaction monitoring (MRM) analyses to determine the most MRM transitions with the highest signal-to-noise gain. Compound plasma concentrations will be determined by comparing to and compensating with co-purified IS peak intensity and validated calibrated standard curves.
Toxicokinetic parameters will be calculated using non-compartmental methods as implemented in the Phoenix® WinNonlin® ver. 6.3 comprehensive TK/PK analysis software program (Pharsight Corporation; Mountain View, CA) using an IV infusion model. Toxicokinetic analysis will be conducted using a 30-minute intravenous infusion time. Therefore, 30 minutes will be added to each sample time point postdose to obtain nominal time for TK analysis. Nominal times and dosage levels will be used for all calculations. Values below the lower limit of quantitation (BLQ) will be assigned a value of zero for the toxicokinetic calculations. Microsoft® Excel® 2013 will be used for receipt of bioanalytical data, minor formatting, including setting BLQ values to “0”, transfer into WinNonlin® for TK analysis, and calculation of the mean when an approximated value will be excluded. All plasma concentration data from all animals will be included in the analysis. Graphical presentations will be performed using Prism® for Macintosh ver. 7.0a (GraphPad, Inc.; La Jolla, CA).

[2] = clinical; details: human, plasma, iv, Plasma Concentration by Nominal Time from Start of Infusion; for level at 0.5 h: 0.50 h
[3] = 0.05 mg/kg, Cohort 1, 0.05 mg/kg IV 1-hr infusion, individual subject
[4] = 0.05 mg/kg, Cohort 1, 0.05 mg/kg IV 1 hr infusion, individual subjects
[5] = 0.05 mg/kg, Mean, Cohort 1, 0.05 mg/kg IV 1-hr infusion, cohort mean
[6] = 0.05 mg/kg, Mean, Cohort 1, 0.05 mg/kg IV 1 hr infusion, cohort mean N 6
[7] = 0.5 mg/kg, Mean, Cohort 4, 0.5 mg/kg IV 2-hr infusion, cohort mean
[8] = 0.5 mg/kg, Mean, Cohort 4, 0.5 mg/kg IV, infusion 2 hours, cohort mean N 6
[9] = 1 mg/kg, Mean, Cohort 5, 1 mg/kg IV 4-hr infusion, cohort mean

Structure (SMILES): CC(C)[C@H](NC(=O)[C@H](Cc1c[nH]c2ccccc12)NC(=O)[C@H](CCCNC(=N)N)NC(=O)[C@H](CCCNC(=N)N)NC(=O)[C@@H](NC(=O)[C@@H](NC(=O)[C@H](CCCNC(=N)N)NC(=O)[C@@H](NC(=O)[C@@H](NC(=O)[C@H](CCCNC(=N)N)NC(=O)[C@H](CCCNC(=N)N)NC(=O)[C@H](Cc1c[nH]c2ccccc12)NC(=O)[C@@H](NC(=O)[C@H](CCCNC(=N)N)NC(=O)[C@H](CCCNC(=N)N)NC(=O)[C@@H](NC(=O)[C@H](CCCNC(=N)N)NC(=O)[C@H](CCCNC(=N)N)NC(=O)[C@@H](NC(=O)[C@H](Cc1c[nH]c2ccccc12)NC(=O)[C@H](CCCNC(=N)N)NC(=O)[C@@H](N)CCCNC(=N)N)C(C)C)C(C)C)C(C)C)C(C)C)C(C)C)C(C)C)C(C)C)C(=O)N[C@@H](CCCNC(=N)N)C(=O)N[C@@H](CCCNC(=N)N)C(N)=O [SEQ ID NO: 1] (H-RRWVRRVRRVWRRVVRVVRRWVRR-NH2)
- AUCinf Extrapolated ([1]; 1 mg/kg, Mean of group): 10.0%
- CL ([1]; 1 mg/kg, Mean of group): 18.5 mL/min/kg
- Dose Normalized AUClast ([1]; 1 mg/kg, Mean of group): 983
- Dose Normalized Cmax ([1]; 1 mg/kg, Mean of group): 1710
- Vss ([1]; 1 mg/kg, Mean of group): 1.38 L/kg
- CL ([1]; 1 mg/kg, individual monkeys): 9.65 mL/min/kg
- Dose Normalized AUClast ([1]; 1 mg/kg, individual monkeys): 740 and 1610 and 595
- Dose Normalized Cmax ([1]; 1 mg/kg, individual monkeys): 1460 and 2660 and 997
- AUCinf Extrapolated ([1]; 3 mg/kg, Mean of group): 1.5%
- CL ([1]; 3 mg/kg, Mean of group): 7.18 mL/min/kg
- Dose Normalized AUClast ([1]; 3 mg/kg, Mean of group): 2530
- Dose Normalized Cmax ([1]; 3 mg/kg, Mean of group): 3450
- T1/2 ([1]; 3 mg/kg, Mean of group): 5.2 h
- Tmax ([1]; 3 mg/kg, Mean of group): 6.6 min
- AUCinf Extrapolated ([1]; 3 mg/kg, individual monkeys): 1.2% and 2.3% and 1.1%
- Dose Normalized AUClast ([1]; 3 mg/kg, individual monkeys): 2220 and 3660 and 1710
- Dose Normalized Cmax ([1]; 3 mg/kg, individual monkeys): 2280 and 5170 and 2900
- T1/2 ([1]; 3 mg/kg, individual monkeys): 5 h
- AUCinf Extrapolated ([1]; 10 mg/kg, Mean of group): 1.3%
- CL ([1]; 10 mg/kg, Mean of group): 6.32 mL/min/kg
- Dose Normalized AUClast ([1]; 10 mg/kg, Mean of group): 5030
- Dose Normalized Cmax ([1]; 10 mg/kg, Mean of group): 3820
- T1/2 ([1]; 10 mg/kg, Mean of group): 4.6 h
- AUCinf Extrapolated ([1]; 10 mg/kg, individual monkeys): 1.0% and 1.8% and 0.99%
- CL ([1]; 10 mg/kg, individual monkeys): 7.5 mL/min/kg
- Dose Normalized Cmax ([1]; 10 mg/kg, individual monkeys): 2600 and 2430 and 6430
- T1/2 ([1]; 10 mg/kg, individual monkeys): 4.3 h and 4.9 h and 4.6 h
- level at 0 h [2, 3]: 6.03 ng/mL
- level at 0.5 h [2, 3]: 166 ng/mL
- level at 21 h [2, 3]: 12.6 ng/mL
- level at 37 h [2, 3]: 6.59 ng/mL
- level at 0 h [2, 4]: 6.03 ng/mL
- level at 0.5 h [2, 4]: 166 ng/mL
- level at 21 h [2, 4]: 12.6 ng/mL
- level at 37 h [2, 4]: 6.59 ng/mL
- level at 0 h [2, 5]: 1.01 ng/mL
- level at 0.5 h [2, 5]: 189 ng/mL
- level at 1 h [2, 5]: 256 ng/mL
- level at 2 h [2, 5]: 108 ng/mL
- level at 3 h [2, 5]: 96.4 ng/mL
- level at 5 h [2, 5]: 79.5 ng/mL
- level at 7 h [2, 5]: 62.5 ng/mL
- level at 9 h [2, 5]: 56.9 ng/mL
- level at 13 h [2, 5]: 31.5 ng/mL
- level at 21 h [2, 5]: 15.4 ng/mL
- level at 25 h [2, 5]: 14.8 ng/mL
- level at 37 h [2, 5]: 1.1 ng/mL
- level at […] [2, 5]: 134 ng/mL
- level at 0 h [2, 6]: 1.01 ng/mL
- level at 0.5 h [2, 6]: 189 ng/mL
- level at 1 h [2, 6]: 256 ng/mL
- level at 2 h [2, 6]: 108 ng/mL
- level at 3 h [2, 6]: 96.4 ng/mL
- level at 5 h [2, 6]: 79.5 ng/mL
- level at 7 h [2, 6]: 62.5 ng/mL
- level at 9 h [2, 6]: 56.9 ng/mL
- level at 13 h [2, 6]: 31.5 ng/mL
- level at 21 h [2, 6]: 15.4 ng/mL
- level at 25 h [2, 6]: 14.8 ng/mL
- level at 37 h [2, 6]: 1.1 ng/mL
- level at […] [2, 6]: 134 ng/mL
- level at 50 h ([2]; 0.5 mg/kg, Cohort 4, 0.5 mg/kg IV 2-hr infusion, individual subject): 45.9 ng/mL
- level at 1 h [2, 7]: 1210 ng/mL
- level at 2 h [2, 7]: 1830 ng/mL
- level at 3 h [2, 7]: 616 ng/mL
- level at 4 h [2, 7]: 451 ng/mL
- level at 6 h [2, 7]: 330 ng/mL
- level at 8 h [2, 7]: 249 ng/mL
- level at 10 h [2, 7]: 219 ng/mL
- level at 14 h [2, 7]: 134 ng/mL
- level at 22 h [2, 7]: 76.3 ng/mL
- level at 26 h [2, 7]: 72.5 ng/mL
- level at 38 h [2, 7]: 41.2 ng/mL
- level at 50 h [2, 7]: 25.7 ng/mL
- level at […] [2, 7]: 877 ng/mL
- level at 1 h [2, 8]: 1210 ng/mL
- level at 2 h [2, 8]: 1830 ng/mL
- level at 3 h [2, 8]: 616 ng/mL
- level at 4 h [2, 8]: 451 ng/mL
- level at 6 h [2, 8]: 330 ng/mL
- level at 8 h [2, 8]: 249 ng/mL
- level at 10 h [2, 8]: 219 ng/mL
- level at 14 h [2, 8]: 134 ng/mL
- level at 22 h [2, 8]: 76.3 ng/mL
- level at 26 h [2, 8]: 72.5 ng/mL
- level at 38 h [2, 8]: 41.2 ng/mL
- level at 50 h [2, 8]: 25.7 ng/mL
- level at […] [2, 8]: 877 ng/mL
- level at 2 h [2, 9]: 2040 ng/mL
- level at 4 h [2, 9]: 2650 ng/mL
- level at 5 h [2, 9]: 1350 ng/mL
- level at 6 h [2, 9]: 1130 ng/mL
- level at 8 h [2, 9]: 803 ng/mL
- level at 10 h [2, 9]: 604 ng/mL
- level at 12 h ([2]; 1 mg/kg, Mean, Cohort 5, 1 mg/kg IV 4-hr infusion, 12 h, cohort mean): 487 ng/mL
- level at 16 h ([2]; 1 mg/kg, Mean, Cohort 5, 1 mg/kg IV 4-hr infusion, 16 h, cohort mean): 287 ng/mL
- level at 24 h ([2]; 1 mg/kg, Mean, Cohort 5, 1 mg/kg IV 4-hr infusion, 24 h, cohort mean): 167 ng/mL
- level at 28 h ([2]; 1 mg/kg, Mean, Cohort 5, 1 mg/kg IV 4-hr infusion, 28 h, cohort mean): 180 ng/mL
- level at 40 h ([2]; 1 mg/kg, Mean, Cohort 5, 1 mg/kg IV 4-hr infusion, 40 h, cohort mean): 98.7 ng/mL
- level at 52 h ([2]; 1 mg/kg, Mean, Cohort 5, 1 mg/kg IV 4-hr infusion, 52 h, cohort mean): 99.6 ng/mL
- level at […] [2, 9]: 1810 ng/mL
